According to patent US20170008888A1 (KYORIN PHARMACEUTICAL CO., LTD., priority 2014, published 2017):
Like-named read-outs stand apart in the source and are kept apart here.

Experiments:
Format in all cases: binding
[1] = molecular target: T1, TAO2 (Homo sapiens, UniProt Q9UL54); experiment: Probe-based (AX9989) kinase profiling in Jurkat lysate: TAO2
T1 construct: screened for activity against several kinases in Jurkat cells; endogenous in cells; host or cells: Jurkat cell lysate
T1 sequence (Q9UL54 1-1235): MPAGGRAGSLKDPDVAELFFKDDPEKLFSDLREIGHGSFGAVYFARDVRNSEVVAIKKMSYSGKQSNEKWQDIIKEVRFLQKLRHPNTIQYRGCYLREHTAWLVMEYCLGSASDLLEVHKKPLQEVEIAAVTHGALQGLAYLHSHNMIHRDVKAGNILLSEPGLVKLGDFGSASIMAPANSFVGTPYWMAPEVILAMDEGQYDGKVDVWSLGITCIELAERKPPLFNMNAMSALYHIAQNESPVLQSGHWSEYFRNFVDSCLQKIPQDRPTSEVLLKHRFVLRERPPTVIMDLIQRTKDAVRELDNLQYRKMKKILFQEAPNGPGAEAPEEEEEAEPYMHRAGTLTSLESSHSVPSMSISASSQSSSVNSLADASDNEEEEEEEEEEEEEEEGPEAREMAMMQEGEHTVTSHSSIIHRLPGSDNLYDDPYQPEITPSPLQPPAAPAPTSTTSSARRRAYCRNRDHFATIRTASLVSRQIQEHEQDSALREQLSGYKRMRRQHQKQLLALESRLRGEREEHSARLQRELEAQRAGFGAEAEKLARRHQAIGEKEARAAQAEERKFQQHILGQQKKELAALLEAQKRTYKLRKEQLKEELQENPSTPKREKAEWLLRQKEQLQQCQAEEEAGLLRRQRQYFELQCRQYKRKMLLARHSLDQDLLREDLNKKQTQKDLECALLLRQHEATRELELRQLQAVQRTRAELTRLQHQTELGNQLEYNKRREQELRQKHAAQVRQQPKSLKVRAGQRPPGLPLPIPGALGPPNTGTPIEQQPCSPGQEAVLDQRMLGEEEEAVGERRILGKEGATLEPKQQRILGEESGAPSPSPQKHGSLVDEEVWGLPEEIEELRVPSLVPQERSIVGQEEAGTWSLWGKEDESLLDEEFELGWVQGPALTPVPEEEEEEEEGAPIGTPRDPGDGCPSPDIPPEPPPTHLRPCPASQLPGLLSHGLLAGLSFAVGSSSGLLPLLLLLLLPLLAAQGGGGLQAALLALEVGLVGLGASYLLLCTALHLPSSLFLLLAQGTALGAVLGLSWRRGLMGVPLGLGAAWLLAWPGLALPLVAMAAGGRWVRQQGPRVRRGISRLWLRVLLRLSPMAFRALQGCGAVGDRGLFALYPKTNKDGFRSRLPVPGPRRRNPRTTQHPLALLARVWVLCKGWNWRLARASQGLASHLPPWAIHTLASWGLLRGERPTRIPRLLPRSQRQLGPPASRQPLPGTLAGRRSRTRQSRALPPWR
Method: (§1) In this example, potency of the compounds as ERK5 inhibitors was assessed, and the compounds were screened for activity against several kinases in Jurkat cells.
(§2) Jurkat cell pellets were resuspended in four volumes of lysis buffer (50 mM HEPES pH 7.5, 150 mM NaCl, 0.1% Triton-X-100, 1% v/v phosphatase, inhibitor cocktail II [EMD/Calbiochem, #524625]), sonicated using a tip, sonicator, and Dounce homogenized. Lysate was cleared by centrifugation, at 16,000 g for 15 min., was gel filtered (BioRad 10DG) and MnCl2 was then added to a final concentration of 20 mM before treatment with the test compound and probe labeling. […] All compound treatments were performed at room temperature.
(§3) Acyl phosphate ATP probe (AX9989) labeling reactions were performed at room temperature with a final probe concentration of 5 μM after a 15 min pre-incubation of lysate with a test compound. All reactions were performed in duplicate, using 445 μl/sample at 5 mg/ml. Probe-labeled lysates were denatured and reduced (6 M urea, 10 mM DTT, 65° C., 15 min), alkylated (40 mM iodoacetamide, 37° C., 30 min, and gel filtered (Sephadex G25) into 10 mM ammonium bicarbonate, 2 M urea, 5 mM methionine. The desalted protein mixture was digested with trypsin (0.015 mg/ml) for 1 hr at 37° C., and desthiobiotinylated peptides were captured using a […] high-capacity streptavidin resin (Thermo Scientific). Captured peptides were then washed extensively using 150 μl/wash with three different wash buffers: (A) 3 times with 1% triton, 0.5% tergitol, 1 mM EDTA in PBS; (B) 18 times with PBS; and (C) 8 times with HPLC grade water. Peptides were eluted from the streptavidin beads using two 35-μL washes of a 50% CH3CN/water mixture containing 0.1% TFA at room temperature.
(§4) Kinase active site peptides were identified and quantified using LC/MS. Percent inhibition was calculated as the normalized decrease in the ESI-MS fragment intensities of probe-labeled peptides in samples incubated with the test compound compared to those without.

[2] = system: ABL or ARG; experiment: Probe-based (AX9989) kinase profiling in Jurkat lysate: ABL or ARG; details: for Kinase inhibition % at indicated screening concentration: ABL or ARG: screening concentration 1.0 μM
Method: as §1, §2, §3, §4

[3] = molecular target: T2, ERK5 (Homo sapiens, UniProt Q13164); experiment: Probe-based (AX9989 acyl phosphate ATP probe) kinase profiling in Jurkat lysate: ERK5; details: for IC50: Jurkat lysate
T2 construct: screened for activity against several kinases in Jurkat cells; endogenous in cells; host or cells: Jurkat cell lysate
Method: as §1, §2, §3, §4
ERK5 IC50 values were calculated from the percent inhibition and the screening concentration.

[4] = system: AurB or AurC; experiment: Probe-based (AX9989) kinase profiling in Jurkat lysate: AurB or AurC; details: for Kinase inhibition % at indicated screening concentration: AurB or AurC: screening concentration 1.0 μM
Method: as §1, §2, §3, §4

[5] = molecular target: T3, JAK1 (Homo sapiens, UniProt P23458); experiment: Probe-based (AX9989) kinase profiling in Jurkat lysate: JAK1
T3 construct: screened for activity against several kinases in Jurkat cells; endogenous in cells; host or cells: Jurkat cell lysate
Method: as §1, §2, §3, §4

[6] = molecular target: T4, AurA (Homo sapiens, UniProt O14965); experiment: Probe-based (AX9989) kinase profiling in Jurkat lysate: AurA
T4 construct: screened for activity against several kinases in Jurkat cells; endogenous in cells; host or cells: Jurkat cell lysate
T4 sequence (O14965 1-403): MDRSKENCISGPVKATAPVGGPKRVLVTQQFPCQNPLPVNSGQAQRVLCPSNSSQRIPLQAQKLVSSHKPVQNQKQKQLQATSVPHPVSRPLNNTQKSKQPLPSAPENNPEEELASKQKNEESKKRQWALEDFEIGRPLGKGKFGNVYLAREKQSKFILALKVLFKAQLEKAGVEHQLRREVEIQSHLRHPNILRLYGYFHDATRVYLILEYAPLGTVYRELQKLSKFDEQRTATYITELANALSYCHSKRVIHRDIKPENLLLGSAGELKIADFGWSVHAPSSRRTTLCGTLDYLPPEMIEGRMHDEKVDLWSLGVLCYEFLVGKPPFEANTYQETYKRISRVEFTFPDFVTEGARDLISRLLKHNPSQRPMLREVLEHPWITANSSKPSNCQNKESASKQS
Method: as §1, §2, §3, §4

[7] = system: AMPKa1 or AMPKa2; experiment: Probe-based (AX9989) kinase profiling in Jurkat lysate: AMPKa1 or AMPKa2; details: for Kinase inhibition % at indicated screening concentration: AMPKa1 or AMPKa2: screening concentration 1.0 μM
Method: as §1, §2, §3, §4

[8] = molecular target: T5, ACK (Homo sapiens, UniProt Q07912); experiment: Probe-based (AX9989) kinase profiling in Jurkat lysate: ACK
T5 construct: screened for activity against several kinases in Jurkat cells; endogenous in cells; host or cells: Jurkat cell lysate
Method: as §1, §2, §3, §4

[9] = calculated from percent inhibition and screening concentration, AX9989 probe
[10] = screening concentration 1.0 μM, read-out: Kinase inhibition % at indicated screening concentration: TAO2
[11] = calculated from percent inhibition of AX9989 labeling and the screening concentration
[12] = screening concentration 1.0 μM, read-out: Kinase inhibition % at indicated screening concentration: ERK5
[13] = screening concentration 1.0 μM, read-out: Kinase inhibition % at indicated screening concentration: JAK1
[14] = screening concentration 1.0 μM, read-out: Kinase inhibition % at indicated screening concentration: AurA
[15] = screening concentration 1.0 μM, read-out: Kinase inhibition % at indicated screening concentration: ACK

T3 sequence (P23458 whole entry): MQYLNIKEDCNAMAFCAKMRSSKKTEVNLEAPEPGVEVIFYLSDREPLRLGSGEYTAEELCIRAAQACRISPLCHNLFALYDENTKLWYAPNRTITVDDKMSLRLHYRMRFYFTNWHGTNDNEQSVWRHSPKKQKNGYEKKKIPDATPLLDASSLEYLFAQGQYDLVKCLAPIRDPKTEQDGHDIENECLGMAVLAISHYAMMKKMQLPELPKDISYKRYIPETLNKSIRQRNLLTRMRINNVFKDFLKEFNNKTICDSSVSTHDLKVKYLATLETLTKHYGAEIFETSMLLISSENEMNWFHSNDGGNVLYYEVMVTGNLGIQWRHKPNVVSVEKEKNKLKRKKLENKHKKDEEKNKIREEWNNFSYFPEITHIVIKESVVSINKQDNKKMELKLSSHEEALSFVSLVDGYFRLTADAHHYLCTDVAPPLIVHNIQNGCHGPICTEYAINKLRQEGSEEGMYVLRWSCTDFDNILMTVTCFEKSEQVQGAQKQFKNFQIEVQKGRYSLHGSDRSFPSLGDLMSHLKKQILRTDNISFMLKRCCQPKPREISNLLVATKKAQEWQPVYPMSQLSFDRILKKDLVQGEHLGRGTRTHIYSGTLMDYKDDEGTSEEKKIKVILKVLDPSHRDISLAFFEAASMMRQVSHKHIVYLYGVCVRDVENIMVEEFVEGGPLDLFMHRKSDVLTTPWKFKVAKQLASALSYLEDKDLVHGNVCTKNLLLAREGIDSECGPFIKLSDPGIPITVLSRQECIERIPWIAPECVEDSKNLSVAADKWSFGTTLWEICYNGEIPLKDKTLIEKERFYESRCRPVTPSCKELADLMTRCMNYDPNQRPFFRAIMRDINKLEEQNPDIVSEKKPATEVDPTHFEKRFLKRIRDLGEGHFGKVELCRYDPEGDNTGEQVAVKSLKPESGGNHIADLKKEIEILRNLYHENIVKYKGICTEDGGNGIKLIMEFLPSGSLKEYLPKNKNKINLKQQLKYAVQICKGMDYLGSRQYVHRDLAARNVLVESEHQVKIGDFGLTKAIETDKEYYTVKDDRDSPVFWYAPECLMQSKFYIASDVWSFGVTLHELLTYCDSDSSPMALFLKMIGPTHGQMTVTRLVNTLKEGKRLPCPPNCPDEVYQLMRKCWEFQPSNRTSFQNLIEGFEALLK
T5 sequence (Q07912 whole entry): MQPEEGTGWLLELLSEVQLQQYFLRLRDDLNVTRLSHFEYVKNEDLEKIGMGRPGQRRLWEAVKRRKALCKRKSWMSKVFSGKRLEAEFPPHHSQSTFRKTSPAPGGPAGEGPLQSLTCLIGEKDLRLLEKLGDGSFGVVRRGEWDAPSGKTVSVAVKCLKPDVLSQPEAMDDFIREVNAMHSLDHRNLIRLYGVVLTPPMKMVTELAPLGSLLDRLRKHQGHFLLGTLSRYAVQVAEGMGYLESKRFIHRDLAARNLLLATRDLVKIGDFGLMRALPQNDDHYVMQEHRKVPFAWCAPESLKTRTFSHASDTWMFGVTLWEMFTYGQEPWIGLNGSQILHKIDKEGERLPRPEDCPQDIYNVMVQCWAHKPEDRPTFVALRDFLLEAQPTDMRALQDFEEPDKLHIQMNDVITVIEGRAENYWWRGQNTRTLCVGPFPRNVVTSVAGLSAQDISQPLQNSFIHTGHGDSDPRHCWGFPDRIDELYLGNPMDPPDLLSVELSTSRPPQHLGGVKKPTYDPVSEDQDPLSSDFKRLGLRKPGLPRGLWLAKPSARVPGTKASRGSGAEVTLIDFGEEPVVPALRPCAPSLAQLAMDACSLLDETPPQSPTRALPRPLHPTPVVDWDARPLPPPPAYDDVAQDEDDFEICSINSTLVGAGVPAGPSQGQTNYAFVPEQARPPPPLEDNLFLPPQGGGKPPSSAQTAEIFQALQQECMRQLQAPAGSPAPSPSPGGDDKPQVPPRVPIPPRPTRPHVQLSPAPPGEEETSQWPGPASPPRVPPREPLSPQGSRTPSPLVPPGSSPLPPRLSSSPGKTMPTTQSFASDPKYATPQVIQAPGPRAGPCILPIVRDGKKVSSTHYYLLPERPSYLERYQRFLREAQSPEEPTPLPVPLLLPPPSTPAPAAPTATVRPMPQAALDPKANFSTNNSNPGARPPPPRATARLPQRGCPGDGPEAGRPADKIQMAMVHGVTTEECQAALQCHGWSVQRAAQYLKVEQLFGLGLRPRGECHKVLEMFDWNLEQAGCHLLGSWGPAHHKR
T2 sequence (Q13164 whole entry): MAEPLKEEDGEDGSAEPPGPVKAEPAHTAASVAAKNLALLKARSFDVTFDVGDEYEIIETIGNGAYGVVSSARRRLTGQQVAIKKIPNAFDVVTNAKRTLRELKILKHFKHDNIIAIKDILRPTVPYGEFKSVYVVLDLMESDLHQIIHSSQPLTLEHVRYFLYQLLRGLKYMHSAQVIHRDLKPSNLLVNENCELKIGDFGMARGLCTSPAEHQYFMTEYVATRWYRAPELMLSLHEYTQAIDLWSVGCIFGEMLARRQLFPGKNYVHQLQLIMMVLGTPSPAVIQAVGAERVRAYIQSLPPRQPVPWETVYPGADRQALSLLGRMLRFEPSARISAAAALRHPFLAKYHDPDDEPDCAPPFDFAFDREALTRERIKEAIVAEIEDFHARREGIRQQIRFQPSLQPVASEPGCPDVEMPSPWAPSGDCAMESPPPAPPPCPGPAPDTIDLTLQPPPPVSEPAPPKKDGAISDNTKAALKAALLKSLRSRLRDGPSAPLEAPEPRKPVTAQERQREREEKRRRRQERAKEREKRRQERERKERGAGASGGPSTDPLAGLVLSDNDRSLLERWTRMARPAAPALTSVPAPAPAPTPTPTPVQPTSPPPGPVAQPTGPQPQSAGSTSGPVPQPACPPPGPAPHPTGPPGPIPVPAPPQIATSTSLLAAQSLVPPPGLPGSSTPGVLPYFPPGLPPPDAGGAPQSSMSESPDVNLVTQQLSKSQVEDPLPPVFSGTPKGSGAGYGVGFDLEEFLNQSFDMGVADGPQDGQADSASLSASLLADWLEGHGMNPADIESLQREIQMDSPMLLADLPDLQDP

| inhibition at 1 µM [1, 10] [%] | Kinase inhibition % at indicated screening concentration: ABL or ARG [2] | IC50 [3, 11] [nM] | inhibition at 1 µM [3, 12] [%] | Kinase inhibition % at indicated screening concentration: AurB or AurC [4] | inhibition at 1 µM [5, 13] [%] | inhibition at 1 µM [6, 14] [%] | Kinase inhibition % at indicated screening concentration: AMPKa1 or AMPKa2 [7] | inhibition at 1 µM [8, 15] [%] | Structure (SMILES) | also measured |
| --- | --- | --- | --- | --- | --- | --- | --- | --- | --- | --- |
|  |  |  |  |  |  |  |  |  | CCOc1cc(C(=O)N2CCN(C3CCN(C)CC3)CC2)ccc1Nc1cc2c(cn1)N(C)C(=O)c1ccccc1N2S(C)(=O)=O [Compound T87] | inhibition at 1 µM ([1]; screening concentration 1 μM, read-out: TAO2 Inhibition % at indicated screening concentration): ≤ 35%; ABL or ARG Inhibition % at indicated screening concentration ([2]; screening concentration 1 μM): E (E is ≦35%); IC50 [3, 9]: > 500 nM; inhibition at 1 µM ([3]; screening concentration 1 μM, read-out: ERK5 Inhibition % at indicated screening concentration): 50 to 75%; AurB or AurC Inhibition % at indicated screening concentration ([4]; screening concentration 1 μM): E (E is ≦35%); inhibition at 1 µM ([5]; screening concentration 1 μM, read-out: JAK1 Inhibition % at indicated screening concentration): ≤ 35%; inhibition at 1 µM ([6]; screening concentration 1 μM, read-out: AurA Inhibition % at indicated screening concentration): ≤ 35%; AMPKa1 or AMPKa2 Inhibition % at indicated screening concentration ([7]; screening concentration 1 μM): E (E is ≦35%); inhibition at 1 µM ([8]; screening concentration 1 μM, read-out: ACK Inhibition % at indicated screening concentration): ≤ 35% |
| ≤ 35 | E (E is ≦35%) | 101 to 500 | 50 to 75 | E (E is ≦35%) | ≤ 35 | ≤ 35 | E (E is ≦35%) | ≤ 35 | COc1ccc(C(=O)N2CCNCC2)cc1Nc1cc2c(cn1)N(C)C(=O)c1ccccc1N2C [Compound 87] |  |
|  |  |  |  |  |  |  |  |  | CCOc1cc(C(=O)N2CCOCC2)ccc1Nc1cc2c(cn1)N(C)C(=O)c1ccccc1S2(=O)=O [Compound T84] | inhibition at 10 µM ([1]; screening concentration 10 μM, read-out: TAO2 Inhibition % at indicated screening concentration): ≤ 35%; ABL or ARG Inhibition % at indicated screening concentration ([2]; screening concentration 10 μM): E (E is ≦35%); IC50 [3, 9]: > 500 nM; inhibition at 10 µM ([3]; screening concentration 10 μM, read-out: ERK5 Inhibition % at indicated screening concentration): 75 to 90%; AurB or AurC Inhibition % at indicated screening concentration ([4]; screening concentration 10 μM): E (E is ≦35%); inhibition at 10 µM ([5]; screening concentration 10 μM, read-out: JAK1 Inhibition % at indicated screening concentration): ≤ 35%; inhibition at 10 µM ([6]; screening concentration 10 μM, read-out: AurA Inhibition % at indicated screening concentration): ≤ 35%; AMPKa1 or AMPKa2 Inhibition % at indicated screening concentration ([7]; screening concentration 10 μM): E (E is ≦35%); inhibition at 10 µM ([8]; screening concentration 10 μM, read-out: ACK Inhibition % at indicated screening concentration): ≤ 35% |
| ≤ 35 | E (E is ≦35%) | > 500 | 50 to 75 | E (E is ≦35%) | ≤ 35 | ≤ 35 | E (E is ≦35%) | ≤ 35 | CCOc1ccccc1Nc1cc2c(cn1)N(C)C(=O)c1ccccc1N2C [Compound 13] |  |
| ≤ 35 | E (E is ≦35%) | > 500 | ≤ 35 | E (E is ≦35%) | ≤ 35 | ≤ 35 | E (E is ≦35%) | ≤ 35 | CN1C(=O)C2CCCCC2N(C)c2cc(NC3CCC(N)CC3)ncc21 (centres unmarked) [Compound 97] |  |
| ≤ 35 | E (E is ≦35%) | > 500 | 50 to 75 | E (E is ≦35%) | ≤ 35 | ≤ 35 | E (E is ≦35%) | ≤ 35 | Cc1ccccc1Nc1cc2c(cn1)N(C)C(=O)c1ccccc1N2C [Compound 58] |  |
| ≤ 35 | E (E is ≦35%) |  | > 90 | E (E is ≦35%) | ≤ 35 | ≤ 35 | E (E is ≦35%) | ≤ 35 | CCOc1cc(C(=O)N2CCC(N3CCCC3)CC2)ccc1Nc1cc2c(cn1)N(C)C(=O)c1scnc1N2C [Compound 34] |  |
| ≤ 35 | E (E is ≦35%) | > 500 | ≤ 35 | E (E is ≦35%) | ≤ 35 | ≤ 35 | E (E is ≦35%) | ≤ 35 | CN1C(=O)C2CCCCC2N(C)c2cc(NC3CCC(O)CC3)ncc21 (centres unmarked) [Compound 76] |  |
